Where two headings read alike, the source gives them in different places.
Experiments:
Ralstonia pickettii (AU) = type: cell-based
Protocol: The stock organisms were thawed and subbed prior to beginning the MBC test. Molds were subbed to SDA plates one week before, and the bacteria were subbed to TAT agar plates 24 hours prior to the start of the test. All plates were incubated at 32 degrees C.
Each bacterial organism was inoculated into 40 ml sterile saline in a centrifuge tube to create a density of MacFarland #1. Two serial dilutions of 1:100 were then made, resulting in 10^−2 and 10^−4 concentrations. Each dilution was vortexed before it was sampled, and sterile Eppendorf pipette tips were used to make each transfer. The 10^−4 dilution was spiral plated to yield the initial inoculum concentration.
MBC trays were set up with the prepared test reagent. Using a Matrix pipettor, 100 μl aliquots of reagent were distributed into the wells, diluting the amount of preservative from 100% to 10% increments, using unpreserved reagent as the diluent. In one row, 100% non-preserved reagent acted as a positive control and served as a benchmark for a full mat of growth. In well #12H, 100 μl unpreserved reagent was pipetted, and this well was not inoculated with organisms, as it served as the negative control. Once all of the trays were prepared, the prepared bacteria/mold suspensions were poured into the MBC inoculating trays. These were placed onto the reagent trays, and 0.01 ml inoculum was introduced into the 100 μl of reagent in each well.
This was done by dipping a sterile cotton swab into each well, and absorbing all of the liquid in the well. The swab was rolled onto a TAT agar plate ensuring that the entire swab touches the agar. Plates ware incubated at 32 degrees C. for 48 hours to 7 days, depending on the organism. Observations for growth were performed by a scoring matrix using + for a full mat, +/− for some growth, a numerical value for an actual colony count, and—for no growth.
Below are tables that contain the data obtained in Example 1. The MBC test is scored by (+) indicating a full grown mat of organisms, equivalent to the organisms in the unpreserved reagent. (+/−) indicates there is some kill evident disturbing that mat or bringing the quantities down to an almost countable level. An actual number is the actual number of colonies growing at that concentration of preservative. (−) indicates no growth found. The MBC trays were stored at room temperature for the entire test.
The materials and methods and analysis of the MBC test were the same as in Example 1.

[1] = system: creatinine biosensor (creatinine amidohydrolase, creatinine amidinohydrolase and sarcosine oxidase); assay: Effect on enzymatic activity of a creatinine biosensor (rate of O2% decrease); type: biochemical; conditions: 210 μM gentamicin, FIG. 1
Protocol: In FIG. 1, the effects of various concentrations of gentamicin on the enzymatic activity of a creatinine biosensor (comprising the three enzymes creatinine amidohydrolase, creatinine amidinohydrolase and sarcosine oxidase) were determined. In FIG. 2, the effects of various concentrations of propionate on the enzymatic activity of a creatinine biosensor (comprising three enzymes) were determined.
In both instances, a decreasing rate of O2% is an indicator of enzyme activity; the faster the rate of O2% decrease, the higher enzymatic activity is.

[N-]=[N+]=[N-] [Sodium Azide, sodium azide]
MBC test growth score (Ralstonia pickettii (AU); 10% preservative, 8 hour): + | MBC test growth score (Ralstonia pickettii (AU); 10% preservative, 24 hour): + | MBC test growth score (Ralstonia pickettii (AU); 10% preservative, 48 hour): + | MBC test growth score (Ralstonia pickettii (AU); 10% preservative, 72 hour): + | MBC test growth score (Ralstonia pickettii (AU); 20% preservative, 8 hour): + | MBC test growth score (Ralstonia pickettii (AU); 20% preservative, 24 hour): + | MBC test growth score (Ralstonia pickettii (AU); 20% preservative, 48 hour): + | MBC test growth score (Ralstonia pickettii (AU); 20% preservative, 72 hour): +/− | MBC test growth score (Ralstonia pickettii (AU); 30% preservative, 8 hour): + | MBC test growth score (Ralstonia pickettii (AU); 30% preservative, 24 hour): + | MBC test growth score (Ralstonia pickettii (AU); 30% preservative, 48 hour): +/− | MBC test growth score (Ralstonia pickettii (AU); 30% preservative, 72 hour): +/− | MBC test growth score (Ralstonia pickettii (AU); 40% preservative, 8 hour): + | MBC test growth score (Ralstonia pickettii (AU); 40% preservative, 24 hour): + | MBC test growth score (Ralstonia pickettii (AU); 40% preservative, 48 hour): +/− | MBC test growth score (Ralstonia pickettii (AU); 40% preservative, 72 hour): +/− | MBC test growth score (Ralstonia pickettii (AU); 50% preservative, 8 hour): + | MBC test growth score (Ralstonia pickettii (AU); 50% preservative, 24 hour): + | MBC test growth score (Ralstonia pickettii (AU); 50% preservative, 48 hour): +/− | MBC test growth score (Ralstonia pickettii (AU); 50% preservative, 72 hour): +/− | MBC test growth score (Ralstonia pickettii (AU); 60% preservative, 8 hour): + | MBC test growth score (Ralstonia pickettii (AU); 60% preservative, 24 hour): + | MBC test growth score (Ralstonia pickettii (AU); 60% preservative, 48 hour): +/− | MBC test growth score (Ralstonia pickettii (AU); 60% preservative, 72 hour): 10 | MBC test growth score (Ralstonia pickettii (AU); 70% preservative, 8 hour): + | MBC test growth score (Ralstonia pickettii (AU); 70% preservative, 24 hour): + | MBC test growth score (Ralstonia pickettii (AU); 70% preservative, 48 hour): +/− | MBC test growth score (Ralstonia pickettii (AU); 70% preservative, 72 hour): 8 | MBC test growth score (Ralstonia pickettii (AU); 80% preservative, 8 hour): + | MBC test growth score (Ralstonia pickettii (AU); 80% preservative, 24 hour): +/− | MBC test growth score (Ralstonia pickettii (AU); 80% preservative, 48 hour): +/− | MBC test growth score (Ralstonia pickettii (AU); 80% preservative, 72 hour): 7 | MBC test growth score (Ralstonia pickettii (AU); 90% preservative, 8 hour): + | MBC test growth score (Ralstonia pickettii (AU); 90% preservative, 24 hour): +/− | MBC test growth score (Ralstonia pickettii (AU); 90% preservative, 48 hour): +/− | MBC test growth score (Ralstonia pickettii (AU); 90% preservative, 72 hour): 4 | MBC test growth score (Ralstonia pickettii (AU); 100% preservative, 8 hour): + | MBC test growth score (Ralstonia pickettii (AU); 100% preservative, 24 hour): +/− | MBC test growth score (Ralstonia pickettii (AU); 100% preservative, 48 hour): +/− | MBC test growth score (Ralstonia pickettii (AU); 100% preservative, 72 hour): 2 | total kill at % preservative (MBC) (Ralstonia pickettii (AU); at 72 hours, listed as Na Azide): No kill @ 100%

Cc1cc(NS(=O)(=O)c2ccc(N)cc2)no1 [Sulfamethoxazole, sulfamethoxazole]
MBC test growth score (Ralstonia pickettii (AU); 10% preservative, 8 hour): + | MBC test growth score (Ralstonia pickettii (AU); 10% preservative, 24 hour): + | MBC test growth score (Ralstonia pickettii (AU); 10% preservative, 48 hour): + | MBC test growth score (Ralstonia pickettii (AU); 10% preservative, 72 hour): + | MBC test growth score (Ralstonia pickettii (AU); 20% preservative, 8 hour): + | MBC test growth score (Ralstonia pickettii (AU); 20% preservative, 24 hour): + | MBC test growth score (Ralstonia pickettii (AU); 20% preservative, 48 hour): + | MBC test growth score (Ralstonia pickettii (AU); 20% preservative, 72 hour): + | MBC test growth score (Ralstonia pickettii (AU); 30% preservative, 8 hour): + | MBC test growth score (Ralstonia pickettii (AU); 30% preservative, 24 hour): + | MBC test growth score (Ralstonia pickettii (AU); 30% preservative, 48 hour): + | MBC test growth score (Ralstonia pickettii (AU); 30% preservative, 72 hour): + | MBC test growth score (Ralstonia pickettii (AU); 40% preservative, 8 hour): + | MBC test growth score (Ralstonia pickettii (AU); 40% preservative, 24 hour): + | MBC test growth score (Ralstonia pickettii (AU); 40% preservative, 48 hour): + | MBC test growth score (Ralstonia pickettii (AU); 40% preservative, 72 hour): + | MBC test growth score (Ralstonia pickettii (AU); 50% preservative, 8 hour): + | MBC test growth score (Ralstonia pickettii (AU); 50% preservative, 24 hour): + | MBC test growth score (Ralstonia pickettii (AU); 50% preservative, 48 hour): + | MBC test growth score (Ralstonia pickettii (AU); 50% preservative, 72 hour): + | MBC test growth score (Ralstonia pickettii (AU); 60% preservative, 8 hour): + | MBC test growth score (Ralstonia pickettii (AU); 60% preservative, 24 hour): + | MBC test growth score (Ralstonia pickettii (AU); 60% preservative, 48 hour): + | MBC test growth score (Ralstonia pickettii (AU); 60% preservative, 72 hour): + | MBC test growth score (Ralstonia pickettii (AU); 70% preservative, 8 hour): + | MBC test growth score (Ralstonia pickettii (AU); 70% preservative, 24 hour): + | MBC test growth score (Ralstonia pickettii (AU); 70% preservative, 48 hour): + | MBC test growth score (Ralstonia pickettii (AU); 70% preservative, 72 hour): + | MBC test growth score (Ralstonia pickettii (AU); 80% preservative, 8 hour): + | MBC test growth score (Ralstonia pickettii (AU); 80% preservative, 24 hour): + | MBC test growth score (Ralstonia pickettii (AU); 80% preservative, 48 hour): + | MBC test growth score (Ralstonia pickettii (AU); 80% preservative, 72 hour): + | MBC test growth score (Ralstonia pickettii (AU); 90% preservative, 8 hour): + | MBC test growth score (Ralstonia pickettii (AU); 90% preservative, 24 hour): + | MBC test growth score (Ralstonia pickettii (AU); 90% preservative, 48 hour): + | MBC test growth score (Ralstonia pickettii (AU); 90% preservative, 72 hour): + | MBC test growth score (Ralstonia pickettii (AU); 100% preservative, 8 hour): + | MBC test growth score (Ralstonia pickettii (AU); 100% preservative, 24 hour): + | MBC test growth score (Ralstonia pickettii (AU); 100% preservative, 48 hour): + | MBC test growth score (Ralstonia pickettii (AU); 100% preservative, 72 hour): +

gentamicin
effect on enzymatic activity of the three enzymes in the creatinine biosensor [1]: did not inactivate enzymatic activity | MBC test growth score (Ralstonia pickettii (AU); 10% preservative, 8 hour): − | MBC test growth score (Ralstonia pickettii (AU); 10% preservative, 24 hour): − | MBC test growth score (Ralstonia pickettii (AU); 10% preservative, 48 hour): − | MBC test growth score (Ralstonia pickettii (AU); 10% preservative, 72 hour): − | MBC test growth score (Ralstonia pickettii (AU); 20% preservative, 8 hour): − | MBC test growth score (Ralstonia pickettii (AU); 20% preservative, 24 hour): − | MBC test growth score (Ralstonia pickettii (AU); 20% preservative, 48 hour): − | MBC test growth score (Ralstonia pickettii (AU); 20% preservative, 72 hour): − | MBC test growth score (Ralstonia pickettii (AU); 30% preservative, 8 hour): − | MBC test growth score (Ralstonia pickettii (AU); 30% preservative, 24 hour): − | MBC test growth score (Ralstonia pickettii (AU); 30% preservative, 48 hour): − | MBC test growth score (Ralstonia pickettii (AU); 30% preservative, 72 hour): − | MBC test growth score (Ralstonia pickettii (AU); 40% preservative, 8 hour): − | MBC test growth score (Ralstonia pickettii (AU); 40% preservative, 24 hour): − | MBC test growth score (Ralstonia pickettii (AU); 40% preservative, 48 hour): − | MBC test growth score (Ralstonia pickettii (AU); 40% preservative, 72 hour): − | MBC test growth score (Ralstonia pickettii (AU); 50% preservative, 8 hour): − | MBC test growth score (Ralstonia pickettii (AU); 50% preservative, 24 hour): − | MBC test growth score (Ralstonia pickettii (AU); 50% preservative, 48 hour): − | MBC test growth score (Ralstonia pickettii (AU); 50% preservative, 72 hour): − | MBC test growth score (Ralstonia pickettii (AU); 60% preservative, 8 hour): − | MBC test growth score (Ralstonia pickettii (AU); 60% preservative, 24 hour): − | MBC test growth score (Ralstonia pickettii (AU); 60% preservative, 48 hour): − | MBC test growth score (Ralstonia pickettii (AU); 60% preservative, 72 hour): − | MBC test growth score (Ralstonia pickettii (AU); 70% preservative, 8 hour): − | MBC test growth score (Ralstonia pickettii (AU); 70% preservative, 24 hour): − | MBC test growth score (Ralstonia pickettii (AU); 70% preservative, 48 hour): − | MBC test growth score (Ralstonia pickettii (AU); 70% preservative, 72 hour): − | MBC test growth score (Ralstonia pickettii (AU); 80% preservative, 8 hour): − | MBC test growth score (Ralstonia pickettii (AU); 80% preservative, 24 hour): − | MBC test growth score (Ralstonia pickettii (AU); 80% preservative, 48 hour): − | MBC test growth score (Ralstonia pickettii (AU); 80% preservative, 72 hour): − | MBC test growth score (Ralstonia pickettii (AU); 90% preservative, 8 hour): − | MBC test growth score (Ralstonia pickettii (AU); 90% preservative, 24 hour): − | MBC test growth score (Ralstonia pickettii (AU); 90% preservative, 48 hour): − | MBC test growth score (Ralstonia pickettii (AU); 90% preservative, 72 hour): − | MBC test growth score (Ralstonia pickettii (AU); 100% preservative, 8 hour): − | MBC test growth score (Ralstonia pickettii (AU); 100% preservative, 24 hour): − | MBC test growth score (Ralstonia pickettii (AU); 100% preservative, 48 hour): − | MBC test growth score (Ralstonia pickettii (AU); 100% preservative, 72 hour): −

From patent publication US20140094424A1, “MICROBICIDAL COMPOSITIONS AND METHODS OF PRODUCTION USE THEREOF” (priority 2011, published 2014)
